Measured values: patent US20230265068A1, “TRANSIENT RECEPTOR POTENTIAL CANONICAL 3 INHIBITORS AND METHODS OF USE THEREOF” (University of Tennessee Research Foundation, priority 2020, published 2023)

Columns and labels:
[1] = system: pilocarpine-induced seizures; experiment: mouse pilocarpine model of SE; assay type: in vivo, mice
Procedure: (FIG. 7A) Mice were treated by pilocarpine (220 mg/kg, i.p.) for seizure induction, and behavioral seizures were scored every 5 min based a modified Racine scale. After stage-2 behavioral seizures were established (usually about 15-20 min after pilocarpine injection), mice were treated by either vehicle or compound 22 (100 mg/kg, i.p.). […] (FIG. 7B) Maximal seizure scores in mice after pilocarpine injection (p<0.0001, t-test). (FIG. 7C) Latency to partial (stage-3) seizures (p=0.0002, t-test). (FIG. 7D) Latency to generalized (stage-4) seizures (p=0.0001, t-test). (FIG. 7E) Percentage of animals that experienced stage-5 seizures or SE (p<0.0001, Fisher's exact test). (FIG. 7F) Percentage of animals survived pilocarpine-induced seizures (p=0.1649, Fisher's exact test). Data are presented as mean+/±SEM.
Mouse Pilocarpine Model of SE. Mice were first injected with methylscopolamine and terbutaline (2 mg/kg each in saline, i.p.) to minimize the unwanted effects of pilocarpine in the periphery. Thirty minutes later, pilocarpine (250 mg/kg in saline, freshly prepared, i.p.) was injected to induce seizures in mice. To determine the anti-seizure effects of compound 22, compound 22 was administered either before pilocarpine injection or after the behavioral seizures were well established. Control mice received methylscopolamine and terbutaline, followed by saline injection instead of pilocarpine. Behavioral seizures were classified using a modified Racine scale as we previously described (Table 5).^22-25 SE was defined by non-intermittent seizure activity (stage 5), which was indicated by continuous generalized clonic seizures without returning to lower-stage seizures (Table 5).

[2] = target: T1, hTRPC7 (Homo sapiens, UniProt Q9HCX4); experiment: whole-cell patch clamp selectivity, HEK 293 cells overexpressing hTRPC7; assay type: cell-based; details: HEK293, with agonist, solutions without Ca2+, read-out: % of the current of hTRPC7 inhibited
T1 construct: expressed in transfected cells; host or cells: HEK293, transient transfection, pMO vector
T1 sequence (Q9HCX4 1-862): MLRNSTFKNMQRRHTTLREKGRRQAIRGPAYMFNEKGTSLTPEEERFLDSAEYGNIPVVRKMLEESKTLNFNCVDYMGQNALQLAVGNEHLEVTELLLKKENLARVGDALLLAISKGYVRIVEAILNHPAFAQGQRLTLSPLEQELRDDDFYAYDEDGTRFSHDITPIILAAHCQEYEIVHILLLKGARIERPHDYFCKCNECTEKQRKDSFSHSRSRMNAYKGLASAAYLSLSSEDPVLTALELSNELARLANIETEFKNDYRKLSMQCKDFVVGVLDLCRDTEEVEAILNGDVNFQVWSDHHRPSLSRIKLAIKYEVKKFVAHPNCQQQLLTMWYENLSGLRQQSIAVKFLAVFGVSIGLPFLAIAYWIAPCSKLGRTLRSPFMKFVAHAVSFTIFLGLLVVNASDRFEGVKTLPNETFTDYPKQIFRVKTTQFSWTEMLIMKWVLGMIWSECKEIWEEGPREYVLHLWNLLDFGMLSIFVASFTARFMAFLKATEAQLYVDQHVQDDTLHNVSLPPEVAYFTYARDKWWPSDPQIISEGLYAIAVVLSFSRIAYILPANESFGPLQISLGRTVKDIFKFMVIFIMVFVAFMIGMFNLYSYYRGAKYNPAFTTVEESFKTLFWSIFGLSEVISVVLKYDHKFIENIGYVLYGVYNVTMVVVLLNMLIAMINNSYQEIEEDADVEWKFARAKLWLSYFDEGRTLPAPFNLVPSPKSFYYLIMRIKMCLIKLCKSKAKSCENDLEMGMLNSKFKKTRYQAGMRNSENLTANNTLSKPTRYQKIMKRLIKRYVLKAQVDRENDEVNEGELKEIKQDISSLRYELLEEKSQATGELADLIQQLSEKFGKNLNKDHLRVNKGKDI
Procedure: Human embryonic kidney 293 (HEK293; catalog number CRL-1573) cells were cultured in Dulbecco's modified Eagle's medium (Invitrogen) supplemented with 10% fetal bovine serum and 1% penicillin-streptomycin at 37° C. and 5% CO2. Constructs cloned in pMO (a pcDNA3-modified vector) were co-transfected with GFP-pMO, using Lipofectamine 2000 (Invitrogen) according to the manufacturer's instructions. Macroscopic currents in the whole-cell patch clamp configuration were recorded 18-24 h post-transfection. The extracellular solution contained 140 mM NaCl, 6 mM KCl, 2 mM MgCl2, 10 mM HEPES, and 10 mM glucose (pH 7.4). Pipettes were made of borosilicate glass (outer diameter, 1.5 mm; inner diameter, 1.10 mm; Sutter Instruments) and fire-polished with a resistance between 2.8 and 4.0 megaohms when filled with an intracellular solution that contained 140 mM CsCl, 5 mM EGTA, and 10 mM HEPES, pH 7.2. Currents were recorded with a Multiclamp 700B amplifier (Molecular Devices) using a 1-s ramp from −100 to 100 mV. […] Data were acquired with a sampling rate of 20 kHz, low-pass filtered (10 kHz), and analyzed offline using Clampfit v10.4.2.0 (Molecular Devices). […]

[3] = single dose 100 mg/kg, i.p after onset of seizures (stage 2)

CCNC(=O)c1cnn(-c2ccc(-n3ccc(Cl)c(Cl)c3=O)cc2)c1C(F)(F)F [Compound 22]
scores of pilocarpine-induced seizures (modified Racine scale) ([1]; 100 mg/kg, i.p. after stage-2 seizures established, vs vehicle): reduced the scores of pilocarpine-induced seizures
electrographic seizures (electroencephalography) ([1]; after pilocarpine injection): diminished electrographic seizures
maximal seizure scores during a 90-minute observation [1, 3]: decreased
overall seizure intensity [1, 3]: decreased the overall seizure intensity
initiation of behavioral seizures ([1]; systemic treatment before pilocarpine injection): significantly impaired the initiation of behavioral seizures
inhibition at 10 µM [2]: ~22%
